Experiments:
[1] = target: glucose dehydrogenase/NAD system (Bacillus subtilis, UniProt P12310); experiment: Photometric glucose determination with test elements containing GlucDH, NAD, mediator and 2,18-phosphomolybdic acid; details: glucose in the region of 800 mg/dl; test elements stored 11 weeks at room temperature
Protocol: Various test systems which each contained glucose dehydrogenase, NAD, a mediator and, where appropriate, an optical indicator, were measured photometrically and electrochemically in order to determine glucose.
For photometric measurements four test elements which had each been stored for 11 weeks at room temperature and contained 2,18-phosphomolybdic acid in addition to glucose dehydrogenase, NAD and a mediator, were initially investigated at various glucose concentrations.
The kinetics of the conversion of glucose using the system glucose dehydrogenase, NAD, 1-(3-carboxypropoxy)-5-ethylphenazinium-trifluoromethane sulfonate and 2,18-phosphomolybdic acid at glucose concentrations in the range from 0 to 800 mg/dl is shown in FIG. 14.

[2] = target: T1, alcohol dehydrogenase (ADH) (Saccharomyces cerevisiae, UniProt P00330); experiment: Stability of alcohol dehydrogenase with coenzyme in a liquid phase at 35° C.; assay type: biochemical, yeast; details: 65 hours at 35° C., 5 mg/ml ADH, 50 mg/ml coenzyme, pH 9.0
T1 sequence (P00330 1-348): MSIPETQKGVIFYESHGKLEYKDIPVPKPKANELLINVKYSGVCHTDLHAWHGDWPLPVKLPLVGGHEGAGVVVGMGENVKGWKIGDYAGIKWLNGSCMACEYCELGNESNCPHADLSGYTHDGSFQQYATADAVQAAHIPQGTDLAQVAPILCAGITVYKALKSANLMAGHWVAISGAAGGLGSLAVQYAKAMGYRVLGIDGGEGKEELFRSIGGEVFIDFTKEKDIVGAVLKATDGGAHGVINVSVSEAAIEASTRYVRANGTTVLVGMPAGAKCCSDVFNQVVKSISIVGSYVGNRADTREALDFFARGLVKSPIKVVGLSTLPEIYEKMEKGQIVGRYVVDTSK
Protocol: FIG. 12 is a graphical illustration of the stability of alcohol dehydrogenase from yeast in the presence of NAD or cNAD in a liquid phase at 35° C. for a period of 65 hours with test conditions of 5 mg/ml ADH; 50 mg/ml NAD or cNAD; buffer: 75 mM Na4P2O7; glycine, pH 9.0; temperature 35° C.
(§1) cNAD or NAD was added to a detection solution containing alcohol dehydrogenase. These mixtures were stored at 2-8° C. and at 35° C. Subsequently, the stability of alcohol dehydrogenase (ADH) was checked at regular intervals and the residual activity of the enzyme was determined.
The residual activity of alcohol dehydrogenase in the presence of the native coenzyme NAD is at about 6% after 65 hours at 35° C., whereas the residual activity of the enzyme in the presence of the artificial coenzyme cNAD is still at about 60%.

[3] = target: T1, alcohol dehydrogenase (ADH); experiment: Storage of alcohol dehydrogenase detection solution with NAD or cNAD (Tables 1 and 2); assay type: biochemical, yeast; details: 16 mmol/l coenzyme
Protocol: as §1
If alcohol dehydrogenase is stored together with native NAD or with cNAD for several months at 2-8° C. in a refrigerator, then one observes in the case of […] a considerable decrease in enzyme activity over the entire storage period. Whereas the difference after 2 weeks storage is still slight, there is an approximately 20% higher residual activity of alcohol dehydrogenase after 12 months storage in the presence of 16 mM cNAD compared to a corresponding solution containing 16 mM NAD as the coenzyme.
Accordingly, the residual activity of alcohol dehydrogenase can be increased somewhat in samples that have been stored for 2 weeks at 2-8° C. by increasing the concentration of cNAD.

[4] = target: glucose dehydrogenase (GlucDH) (Bacillus subtilis, UniProt P12310); experiment: Stability of glucose dehydrogenase with coenzyme in a liquid phase at 50° C.; assay type: biochemical; details: 10 mg/ml GlucDH, 12 mg/ml coenzyme, pH 8.5
Sequence of glucose dehydrogenase (GlucDH) (P12310 whole entry): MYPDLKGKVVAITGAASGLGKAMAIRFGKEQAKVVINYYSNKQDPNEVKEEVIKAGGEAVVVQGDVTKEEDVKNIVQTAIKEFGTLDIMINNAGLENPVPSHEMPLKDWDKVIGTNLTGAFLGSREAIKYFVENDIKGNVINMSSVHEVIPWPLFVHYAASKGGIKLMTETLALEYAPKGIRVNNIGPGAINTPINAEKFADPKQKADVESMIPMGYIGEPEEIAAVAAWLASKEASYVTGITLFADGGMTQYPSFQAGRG
Protocol: FIGS. 9A and 9B are graphical illustrations of the stability of glucose dehydrogenase in the presence of NAD or cNAD in a liquid phase at 50° C. for a period of 4 days (FIG. 9A) or 14 days (FIG. 9B) with test conditions of 10 mg/ml GlucDH; 12 mg/ml NAD or cNAD; buffer: 0.1 M Tris, 1.2 M NaCl, pH 8.5; temperature 50° C.
After 95 hours at 50° C. the residual activity of glucose dehydrogenase in the presence of the native coenzyme NAD is […], whereas the residual activity of GlucDH in the presence of the artificial coenzyme cNAD is 75% (FIG. 9A). After 336 hours storage at 50° C. the residual activity of the enzyme stabilized with NAD is now only about 1%; a residual activity of still about 70% is observed for the enzyme stored in the presence of cNAD. The corresponding SDS gels also show a change in the GlucDH bands in the presence of the native coenzyme NAD: new bands are seen at higher molar masses and there is a shift in the 30 kDa band.

[5] = target: Glucose dehydrogenase mutant2 (Bacillus subtilis, UniProt P12310, A229V/A236S/E170K/Q252L); experiment: Differential scanning calorimetry (DSC) of coenzyme binding; details: Tris buffer, pH 8.0; versus absence of NAD (79.1° C.)
Sequence of Glucose dehydrogenase mutant2 (P12310 whole entry E170K/A229V/A236S/Q252L): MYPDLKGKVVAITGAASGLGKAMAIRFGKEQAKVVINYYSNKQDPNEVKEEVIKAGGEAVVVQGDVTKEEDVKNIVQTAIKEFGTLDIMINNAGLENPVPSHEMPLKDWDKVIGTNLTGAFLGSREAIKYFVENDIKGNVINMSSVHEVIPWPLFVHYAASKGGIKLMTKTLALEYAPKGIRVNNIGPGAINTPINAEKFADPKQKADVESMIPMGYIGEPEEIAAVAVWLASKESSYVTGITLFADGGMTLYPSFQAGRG

Sequence of glucose dehydrogenase/NAD system (P12310 whole entry): as the sequence (P12310 whole entry) above

| SMILES | reflectance of the measured sample [1] | residual activity of alcohol dehydrogenase [2] | ADH activity after 2 weeks at 2-8° C. ([3]; 2 weeks at 2-8° C.) | ADH activity after 3 months at 2-8° C. ([3]; 3 months at 2-8° C.) | ADH activity after 7.5 months at 2-8° C. ([3]; 7.5 months at 2-8° C.) | ADH activity after 10 months at 2-8° C. ([3]; 10 months at 2-8° C.) | ADH activity after 12 months at 2-8° C. ([3]; 12 months at 2-8° C.) | ADH activity % of weighed amount (initial value) ([3]; initial value) | residual activity of glucose dehydrogenase ([4]; 95 hours at 50° C.) | residual activity of glucose dehydrogenase ([4]; 336 hours at 50° C.) | TM shift on binding of ligand [5] |
| --- | --- | --- | --- | --- | --- | --- | --- | --- | --- | --- | --- |
| CC[n+]1c2ccccc2nc2c(OCCCC(=O)O)cccc21.O=S(=O)([O-])C(F)(F)F [1-(3-carboxy-propoxy)-5-ethylphenazinium-trifluoromethane sulfonate] | about 20% | – | – | – | – | – | – | – | – | – | – |
| NC(=O)c1ccc[n+]([C@@H]2O[C@H](COP(=O)([O-])OP(=O)(O)OC[C@H]3O[C@@H](n4cnc5c(N)ncnc54)[C@H](O)[C@@H]3O)[C@@H](O)[C@H]2O)c1 [NAD, nicotinamide adenine dinucleotide, reference compound] | – | about 6% | 96.9 % of initial value | 92.1 % of initial value | 80.2 % of initial value | 70.3 % of initial value | 60.5 % of initial value | 85.2 % of weighed amount | > 5% | about 1% | more than 1.5 °C |
| Cl.O=Nc1ccc(N(CO)CO)cc1 [[(4-nitroso-phenyl)imino]dimethanol hydrochloride] | about 20% | – | – | – | – | – | – | – | – | – | – |
